Laboratory results: PMC10522591, “Natural product P57 induces hypothermia through targeting pyridoxal kinase” (Nature Communications, 2023)
Numbering of substitutions follows the chain as printed. pKd: −log10 of the molar value.

Legend:
pyridoxal kinase (PDXK) [1] = target: T1, pyridoxal kinase (PDXK) (Homo sapiens, UniProt O00764); test: initial velocity kinetics, ATP varied at fixed PL; type: biochemical
T1 construct: wild-type full-length human PDXK, N-terminal His tag
T1 sequence (O00764 1-312): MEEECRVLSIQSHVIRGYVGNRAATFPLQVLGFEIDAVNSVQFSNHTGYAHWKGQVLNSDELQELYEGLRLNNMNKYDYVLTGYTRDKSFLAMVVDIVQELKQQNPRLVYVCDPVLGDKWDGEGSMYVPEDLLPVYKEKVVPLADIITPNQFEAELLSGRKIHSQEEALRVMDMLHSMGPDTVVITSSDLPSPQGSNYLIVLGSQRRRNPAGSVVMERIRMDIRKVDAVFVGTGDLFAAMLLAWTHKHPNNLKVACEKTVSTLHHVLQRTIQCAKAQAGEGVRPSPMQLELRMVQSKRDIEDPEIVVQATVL

pyridoxal kinase (PDXK) [2] = target: T2, pyridoxal kinase (PDXK) (Mus musculus, UniProt Q8K183); test: competition of P57-Bio ([…]) affinity pull-down by P57 ([…]), Western blot; type: cell-based
T2 construct: endogenous, mouse brain lysate
T2 sequence (Q8K183 1-312): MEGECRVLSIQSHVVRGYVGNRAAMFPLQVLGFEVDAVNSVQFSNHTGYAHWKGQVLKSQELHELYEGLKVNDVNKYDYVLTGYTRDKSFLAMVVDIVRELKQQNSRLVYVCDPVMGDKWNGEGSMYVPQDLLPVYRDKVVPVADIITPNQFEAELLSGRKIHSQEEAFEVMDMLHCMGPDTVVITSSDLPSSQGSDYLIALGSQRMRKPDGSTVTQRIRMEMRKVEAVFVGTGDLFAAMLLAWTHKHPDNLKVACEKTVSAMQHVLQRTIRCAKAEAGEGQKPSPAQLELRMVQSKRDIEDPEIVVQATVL

pyridoxal kinase (PDXK) [3] = target: T3, pyridoxal kinase (PDXK) (Homo sapiens, UniProt O00764, D235A); test: inhibition of purified mutant enzyme (Fig. S5g); type: biochemical
T3 construct: full-length human PDXK D235A, N-terminal His tag
T3 sequence (O00764 1-312 D235A): T1 sequence (O00764 1-312) with D235A

pyridoxal kinase (PDXK) [4] = target: T1, pyridoxal kinase (PDXK); test: SPR (Biacore T200); also MST Kd =[…], and enzyme inhibition with EC50 […]; type: binding

SMILES	initial velocity kinetics, ATP varied at fixed PL (pyridoxal kinase (PDXK) [1])	competition of P57-Bio (2.0 μM) affinity pull-down by P57 (20.0 μM), Western blo (pyridoxal kinase (PDXK) [2])	inhibition of purified mutant enzyme (Fig. S5g) (pyridoxal kinase (PDXK) [3])	pKd (pyridoxal kinase (PDXK) [4])
Nc1ncnc2c1ncn2[C@@H]1O[C@H](COP(=O)(O)OP(=O)(O)OP(=O)(O)O)[C@@H](O)[C@H]1O [ATP]	PL concentration was fixed and the concentrations of ATP were varied showed that both Km and Vmax values decreased			
C/C=C(\C)C(=O)O[C@@H]1C[C@H]2[C@@H](CC=C3C[C@@H](O[C@H]4C[C@H](OC)[C@H](O[C@H]5C[C@H](OC)[C@H](O[C@@H]6O[C@H](C)[C@@H](O)[C@H](OC)[C@H]6O)[C@@H](C)O5)[C@@H](C)O4)CC[C@@]32C)[C@@]2(O)CC[C@H](C(C)=O)[C@@]12C [P57]		immunoblotting showed GSTP1 and PDXK, but not neuromodulin, were sensitive to competition by excess P57	the D235A mutation can reduce the binding stability to a certain extent, and partly reducing the inhibitory activity	5.46
